From EP4458352A1, “EICOSAPENTAENOIC ACID ESTER DERIVATIVES FOR THE TREATMENT OF OBESITY” (Technische Universität Dresden, priority 2023, dated 2024)

Tests used:
NCI-H295R cells = assay: Cholesterol and cholesteryl ester content (LC-MS/MS) of mitochondrial and lipid droplet fractions of NCI-H295R cells treated with SC-26196; assay type: cell-based, Human
Description: NCI-H295R cells (obtained from ATCC Cat# CRL-2128) were maintained in DMEM/F12 medium supplemented with 2.5 % Nu-Serum type I (Corning), 1 % Insulin Transferrin Selenium (ITS; Gibco), 50 U/mL penicillin and 50 µg/mL streptomycin. They were treated for 18 h with 10 µM SC-26196 or DMSO. […]
Cells were trypsinized and pelleted by centrifugation (500xg, 5 min, 4 °C). The cells were gently resuspended in homogenization buffer (200 mM mannitol, 50 mM sucrose, 10 mM KCI, […] 25 mM HEPES, pH 7.4, 1 µM aprotinin, 10 µM leupeptin, 20 µM PMSF) and homogenized on ice with 20 strokes of tight Dounce homogenizer. The samples were then centrifuged (800xg, 10 min, 4 °C) to pellet the nuclei. […]
Fractions 10-12 (SDHB-positive) and 4-5 (HSL-positive) were considered as mitochondrial and lipid droplet fractions, respectively. Protein concentration was measured in the mitochondrial and lipid droplet pools with the BCA Protein Assay Kit (Thermo Fisher) and fractions were analyzed for cholesterol and CE concentrations.
For quantification of cholesterol and cholesteryl esters, equal volumes of mitochondria fractions (180 µL) were combined, cholesterol-2,3,4-^13C (5 nmol, […]) and SPLASH®Lipidomix® (3 µL, Avanti Polar Lipids Inc) spiked, and samples incubated for 15 min on ice. […]

[1] = test system: primary adrenal cell cultures; assay: Steroid hormone production (LC-MS/MS) in primary adrenal cell cultures treated with SC-26196, with or without ACTH or ARA; assay type: cell-based, WT C57BL/6J mice
Description: Adrenal glands or adrenal corteces were isolated from WT C57BL/6J mice, cleaned from the surrounding fat tissue and incubated in collagenase buffer (1.6 mg/ml collagenase type I, 1.6 mg/ml BSA) for 45 min at 37 °C, while shaking at 900 rpm. Dissociated cells were passed through 22 G needle and a 100 µm cell strainer and centrifuged at 300 × g for 5 min at 4 °C. Cells of a pool from two adrenals of each mouse were distributed in four 0.2 % gelatin-precoated wells of a 96-well plate in DMEM/F12 supplemented with 1 % FBS, 50 U/mL penicillin and 50 µg/mL streptomycin. Two hours after seeding 10 µM SC-26196 (Tocris, Wiesbaden-Nordenstadt, Germany) or same amount of carrier (DMSO) were added without changing the medium. In some experiments medium was additionally supplemented with 150 µM ARA (Sigma Aldrich, Germany) or same amount of solvent (endotoxin-free water). When induction of steroidogenesis was required, the medium was changed 18 h after treatment and the cells were incubated with or without 10 ng/mL ACTH for 60 min in the presence of either 10 µM SC-26196 or DMSO. Supernatants were kept for steroid hormone measurement and cell lysates were collected for transcriptional analysis. In some experiments, primary CD31-CD45- adrenocortical cells were treated or not for 18 h with 66 µM EPA (Sigma-Aldrich). Steroid hormones in plasma and cell culture supernatants were analyzed by LC-MS/MS as previously described (71). Fifty to hundred µL plasma or cell culture supernatants were extracted by solid phase extraction using positive pressure, followed by a dry-down under gentle stream of nitrogen. Residues were reconstituted in 100 µL of the initial LC mobile phase and 10 µL were injected for detection by the triple quadrupole mass spectrometer in multiple reaction-monitoring scan mode using positive electrospray ionization. Quantification of steroid concentrations was done by comparisons of ratios of analyte peak areas to respective peak areas of stable isotope labeled internal standards obtained in samples to those of calibrators.

[2] = SC-26196 10 µM 18 h, then ACTH 10 ng/mL for 1 h, n=12

With `N#CC(CCCN1CCN(/N=C/c2cccnc2)CC1)(c1ccccc1)c1ccccc1` [SC-26196] the “mitochondrial cholesterol levels upon forskolin stimulation” value (NCI-H295R cells; SC-26196 18 h vs DMSO, forskolin (FSK, 1 µM) for 30 min, SDHB positive fractions) was “strong increase in mitochondrial cholesterol levels in control- but not SC-26196-treated cells”, the “cholesterol and CE in the lipid droplet (HSL positive) fractions” value (NCI-H295R cells; SC-26196-treated cells) was “accumulated” and the 11-deoxycorticosterone production [1, 2] was “abolished”. For the same molecule, the aldosterone production [1, 2] was “abolished”, the corticosterone production [1, 2] was “abolished” and the progesterone production [1, 2] was “abolished”. The cell viability ([1]; SC-26196-treated primary adrenal cell cultures, data not shown) was “without affecting cell viability”.
